{
  "source": "paper PMC6102747",
  "about": "(Molecular Medicine Reports, 2018)",
  "key": {"Car [1]": {"tested_on": "Car", "assay": "Western blot protein expression in small intestine and liver", "type": "in vivo, rats", "conditions": "vs control"}, "Gstm1 [2]": {"tested_on": "Gstm1", "assay": "RT-qPCR mRNA expression in liver", "type": "in vivo, rats", "conditions": "vs control"}, "[3]": {"assay": "Pharmacokinetics of CsA after intravenous administration", "type": "in vivo, Sprague-Dawley rats", "conditions": "rats, i.v. CsA 2.5 mg/kg, Q3GA 5 mg/kg i.v. 7 days"}, "Cyp3a2 [4]": {"tested_on": "Cyp3a2", "type": "in vivo, rats", "conditions": "vs control"}, "Cyp3a2 [5]": {"tested_on": "Cyp3a2", "assay": "RT-qPCR mRNA expression in small intestine and liver", "type": "in vivo, rats", "conditions": "vs control"}, "Mrp2": {"tested_on": "Mrp2", "assay": "Western blot protein expression in small intestine and liver", "type": "in vivo, rats", "conditions": "vs control, P<0.001"}, "Car [6]": {"tested_on": "Car", "assay": "RT-qPCR mRNA expression in small intestine and liver", "type": "in vivo, rats", "conditions": "vs control"}, "Ugt1a1": {"tested_on": "Ugt1a1", "assay": "RT-qPCR mRNA expression in small intestine and liver", "type": "in vivo, rats", "conditions": "vs control"}, "Pxr": {"tested_on": "Pxr", "assay": "RT-qPCR mRNA expression in small intestine and liver", "type": "in vivo, rats", "conditions": "small intestine, vs control, P<0.001"}, "Gstm1 [7]": {"tested_on": "Gstm1", "assay": "Western blot protein expression in liver", "type": "in vivo, rats", "conditions": "vs control"}, "OATP2B1": {"tested_on": "OATP2B1", "assay": "Western blot protein expression in small intestine", "type": "in vivo, rats", "conditions": "vs control"}, "Slco2b1": {"tested_on": "Slco2b1", "assay": "RT-qPCR mRNA expression in small intestine", "type": "in vivo, rats", "conditions": "vs control"}, "[8]": {"conditions": "small intestine, high-dose Q3GA 10 mg/kg i.v. 7 days, P<0.01"}, "[9]": {"conditions": "small intestine, low-dose Q3GA 2.5 mg/kg i.v. 7 days, P<0.001"}, "[10]": {"conditions": "high-dose Q3GA 10 mg/kg i.v. 7 days"}, "[11]": {"conditions": "low-dose Q3GA 2.5 mg/kg i.v. 7 days, P<0.001"}, "[12]": {"conditions": "middle-dose Q3GA 5 mg/kg i.v. 7 days"}, "[13]": {"conditions": "liver, low-dose Q3GA 2.5 mg/kg i.v. 7 days, P<0.001"}, "[14]": {"conditions": "liver, middle-dose Q3GA 5 mg/kg i.v. 7 days, P<0.001"}, "[15]": {"conditions": "small intestine, middle-dose Q3GA 5 mg/kg i.v. 7 days"}, "[16]": {"conditions": "liver, high-dose Q3GA 10 mg/kg i.v. 7 days, P<0.01"}, "[17]": {"conditions": "small intestine, high-dose Q3GA 10 mg/kg i.v. 7 days, P<0.001"}, "[18]": {"conditions": "small intestine, middle-dose Q3GA 5 mg/kg i.v. 7 days, P<0.05"}, "[19]": {"conditions": "high-dose Q3GA 10 mg/kg i.v. 7 days, P<0.01"}},
  "note": "Read-outs that look alike come from different tables or passages of the source.",
  "data": [
    {"compound": "O=c1c(O[C@@H]2O[C@H](CO)[C@@H](O)[C@H](O)[C@H]2O)c(-c2ccc(O)c(O)c2)oc2cc(O)cc(O)c12", "note": "[Q3GA, Quercetin-3-O-β-D-glucoside]", "values": [
      {"measurement": "increase in CAR protein expression", "setting": "Car [1]; liver, high-dose Q3GA 10 mg/kg i.v. 7 days, not significant", "result": 211.76, "unit": "%"},
      {"measurement": "increase in CAR protein expression", "setting": "Car [1]; liver, low-dose Q3GA 2.5 mg/kg i.v. 7 days, P<0.01", "result": 456.37, "unit": "%"},
      {"measurement": "increase in CAR protein expression", "setting": "Car [1]; liver, middle-dose Q3GA 5 mg/kg i.v. 7 days, not significant", "result": 208.32, "unit": "%"},
      {"measurement": "increase in CAR protein expression", "setting": "Car [1]; [8]", "result": 91.07, "unit": "%"},
      {"measurement": "increase in CAR protein expression", "setting": "Car [1]; [9]", "result": 235.46, "unit": "%"},
      {"measurement": "increase in CAR protein expression", "setting": "Car [1]; small intestine, middle-dose Q3GA 5 mg/kg i.v. 7 days, P<0.01", "result": 78.59, "unit": "%"},
      {"measurement": "increase in Gstm1 mRNA expression", "setting": "Gstm1 [2]; [10]", "result": 75.09, "unit": "%"},
      {"measurement": "increase in Gstm1 mRNA expression", "setting": "Gstm1 [2]; [11]", "result": 248.40, "unit": "%"},
      {"measurement": "increase in Gstm1 mRNA expression", "setting": "Gstm1 [2]; [12]", "result": 85.41, "unit": "%"},
      {"measurement": "effect on blood concentration of CsA after intravenous injection of CsA", "setting": "[3]", "result": "not affected"},
      {"measurement": "decrease in CYP3A2 protein expression", "setting": "Cyp3a2 [4]; liver, high-dose Q3GA 10 mg/kg i.v. 7 days, P<0.001", "result": 47.16, "unit": "%"},
      {"measurement": "decrease in CYP3A2 protein expression", "setting": "Cyp3a2 [4]; [13]", "result": 54.18, "unit": "%"},
      {"measurement": "decrease in CYP3A2 protein expression", "setting": "Cyp3a2 [4]; [14]", "result": 33.07, "unit": "%"},
      {"measurement": "decrease in CYP3A2 protein expression", "setting": "Cyp3a2 [4]; [8]", "result": 38.67, "unit": "%"},
      {"measurement": "decrease in CYP3A2 protein expression", "setting": "Cyp3a2 [4]; [9]", "result": 55.28, "unit": "%"},
      {"measurement": "decrease in CYP3A2 protein expression", "setting": "Cyp3a2 [4]; [15]", "result": 21.68, "unit": "%"},
      {"measurement": "decrease in Cyp3a2 mRNA expression", "setting": "Cyp3a2 [5]; [16]", "result": 34.64, "unit": "%"},
      {"measurement": "decrease in Cyp3a2 mRNA expression", "setting": "Cyp3a2 [5]; [13]", "result": 64.68, "unit": "%"},
      {"measurement": "decrease in Cyp3a2 mRNA expression", "setting": "Cyp3a2 [5]; liver, middle-dose Q3GA 5 mg/kg i.v. 7 days, P<0.05", "result": 26.18, "unit": "%"},
      {"measurement": "decrease in Cyp3a2 mRNA expression", "setting": "Cyp3a2 [5]; [17]", "result": 39.36, "unit": "%"},
      {"measurement": "decrease in Cyp3a2 mRNA expression", "setting": "Cyp3a2 [5]; [9]", "result": 49.70, "unit": "%"},
      {"measurement": "decrease in Cyp3a2 mRNA expression", "setting": "Cyp3a2 [5]; [15]", "result": 17.93, "unit": "%"},
      {"measurement": "decrease in MRP2 protein expression", "setting": "Mrp2; liver, low-dose Q3GA 2.5 mg/kg i.v. 7 days", "result": 70.70, "unit": "%"},
      {"measurement": "decrease in MRP2 protein expression", "setting": "Mrp2; small intestine, high-dose Q3GA 10 mg/kg i.v. 7 days", "result": 50.84, "unit": "%"},
      {"measurement": "decrease in MRP2 protein expression", "setting": "Mrp2; small intestine, low-dose Q3GA 2.5 mg/kg i.v. 7 days", "result": 75.95, "unit": "%"},
      {"measurement": "decrease in MRP2 protein expression", "setting": "Mrp2; [15]", "result": 42.60, "unit": "%"},
      {"measurement": "increase in Car mRNA expression", "setting": "Car [6]; [16]", "result": 74.60, "unit": "%"},
      {"measurement": "increase in Car mRNA expression", "setting": "Car [6]; [13]", "result": 224.76, "unit": "%"},
      {"measurement": "increase in Car mRNA expression", "setting": "Car [6]; [14]", "result": 98.73, "unit": "%"},
      {"measurement": "increase in Car mRNA expression", "setting": "Car [6]; small intestine, high-dose Q3GA 10 mg/kg i.v. 7 days, P<0.05", "result": 117.54, "unit": "%"},
      {"measurement": "increase in Car mRNA expression", "setting": "Car [6]; [9]", "result": 265.44, "unit": "%"},
      {"measurement": "increase in Car mRNA expression", "setting": "Car [6]; [18]", "result": 99.57, "unit": "%"},
      {"measurement": "decrease in Ugt1a1 mRNA expression", "setting": "Ugt1a1; liver, high-dose Q3GA 10 mg/kg i.v. 7 days, P<0.05", "result": 41.04, "unit": "%"},
      {"measurement": "decrease in Ugt1a1 mRNA expression", "setting": "Ugt1a1; [13]", "result": 76.13, "unit": "%"},
      {"measurement": "decrease in Ugt1a1 mRNA expression", "setting": "Ugt1a1; liver, middle-dose Q3GA 5 mg/kg i.v. 7 days, P<0.01", "result": 48.78, "unit": "%"},
      {"measurement": "decrease in Ugt1a1 mRNA expression", "setting": "Ugt1a1; [17]", "result": 37.83, "unit": "%"},
      {"measurement": "decrease in Ugt1a1 mRNA expression", "setting": "Ugt1a1; [9]", "result": 70.14, "unit": "%"},
      {"measurement": "decrease in Ugt1a1 mRNA expression", "setting": "Ugt1a1; [18]", "result": 24.08, "unit": "%"},
      {"measurement": "increase in Pxr mRNA expression", "setting": "Pxr; [10]", "result": 200.21, "unit": "%"},
      {"measurement": "increase in Pxr mRNA expression", "setting": "Pxr; low-dose Q3GA 2.5 mg/kg i.v. 7 days", "result": 415.18, "unit": "%"},
      {"measurement": "increase in Pxr mRNA expression", "setting": "Pxr; [12]", "result": 130.03, "unit": "%"},
      {"measurement": "increase in GSTM1 protein expression", "setting": "Gstm1 [7]; high-dose Q3GA 10 mg/kg i.v. 7 days, P<0.05", "result": 229.75, "unit": "%"},
      {"measurement": "increase in GSTM1 protein expression", "setting": "Gstm1 [7]; [11]", "result": 417.29, "unit": "%"},
      {"measurement": "increase in GSTM1 protein expression", "setting": "Gstm1 [7]; [12]", "result": 159.37, "unit": "%"},
      {"measurement": "decrease in OATP2B1 protein expression", "setting": "OATP2B1; [19]", "result": 51.44, "unit": "%"},
      {"measurement": "decrease in OATP2B1 protein expression", "setting": "OATP2B1; [11]", "result": 86.44, "unit": "%"},
      {"measurement": "decrease in OATP2B1 protein expression", "setting": "OATP2B1; middle-dose Q3GA 5 mg/kg i.v. 7 days, P<0.01", "result": 42.21, "unit": "%"},
      {"measurement": "decrease in Slco2b1 mRNA expression", "setting": "Slco2b1; [19]", "result": 39.57, "unit": "%"},
      {"measurement": "decrease in Slco2b1 mRNA expression", "setting": "Slco2b1; [11]", "result": 62.19, "unit": "%"},
      {"measurement": "decrease in Slco2b1 mRNA expression", "setting": "Slco2b1; [12]", "result": 20.49, "unit": "%"}
    ]}
  ]
}
